Experimental findings from US20240042424A1, “CITY POLLUTION ENVIRONMENT SIMULATION APPARATUS” (BASF SE, priority 2017, published 2024) are described below.

What all share (format): physicochemical
Series [1] is described as follows: Sebum oxidation products by GC/MS after exposure in pollution test chamber (dry film method). To be noted: for change of sebum component in GC/MS chromatogram: upon UVA exposure. As for the experimental part: (§1) A) Stock solutions and preparation: • Stock solution squalene: 1 g of squalene was dissolved in 100 ml ethanol solvent • Stock solution sebum: 1 g of synthetic sebum (e.g. Synthetic Sebum 09D, available from WFK Testgewebe GmbH) was dissolved in 100 ml ethanol solvent using a water bath 15 minutes under 40° C. heat 1 ml of the respective stock solution was added at the center of large petri dishes (100 mm diameter×17 mm height) using an automatic pipette. After evaporating the ethanol solvent in a high ventilated fume hood for 10 mins, the petri dishes were coated with one uniform layer of squalene, respectively sebum, evenly distributed at the bottom of the petri dish. In total 16 samples were prepared, 8 of each respective batch, meaning 8 with squalene coating (batch 1) and 8 with sebum coating (batch 2). The side walls of the test petri dish samples were wrapped with plastic band seals in order to get them vertically hooked in a position facing the UVA lamps located on sides in the pollution test chamber. Four coated petri dishes, two with squalene and two with sebum, were stored in a fridge at 4° C. for control purposes, due to the autoxidation of squalene.
(§2) For each batch, 2 samples (in total 4 samples per mode) were respectively exposed to the 3 different pollution modes (i to iii): • i. During the “UVA only” (“uv”) mode, the samples were exposed to continuous 340 nm UV irradiation of the 8 UVA lamps for 6 hours. • ii. […]
(§3) 3.3.1 Squalene and Sebum oxidation products quantification with GC/MS • Equipment: Agilent 7890B/5977A GC-MS system • Dissolution solvent: Ethanol • column: DB-1MS • Flow Rate: 2 ml/min • Column Temperature: 40° C. […] Malondialdehyde (MDA) Quantification with Spectrophotometer (MDA-TBA Detection) • UV-vis scan between 200 and 800 nm, • Colorimetry: UV detection for MDA-TBA complex at 532 nm • Standard curve preparation: As precursor of MDA, 1,1,3,3-tetraethoxypropane (TEP) was used. […]

Series [2] is described as follows: MDA quantification/TBA test for squalene samples after pollution exposure. As for the experimental part: as §1, §2, §3
Series [3] in a line: Squalene oxidation products by GC/MS after exposure in pollution test chamber (dry film method). The following applies: solvent ethanol. As for the experimental part:
as §1, §2, §3

As to `CCCCCCCCCCCCCCCC(=O)O` [palmitic acid], the “change of sebum component in GC/MS chromatogram” value in series [1] is recorded as “increase”.

On to `CC(C)=CCC/C(C)=C/CC/C(C)=C/CC/C=C(\C)CC/C=C(\C)CCC=C(C)C` [squalene], for which the “MDA percentage of initial mole of squalene” value in series [2] (UVA irradiation only (uv mode)) was 14.0%; in series [2] (combined exhaust gas and UV irradiation (puv mode)), 13.6%; in series [2] (exhaust gas only (p mode)), 13.5%. For the same compound, the “squalene oxidization products (GC/MS)” value is recorded as “a mix of pollution-induced squalene isomers (SQ isomers) as well as irradiation-induced oxidation products (SQOPs)” in series [3] (UVA and exhaust gas (PUV-Mode), UVA 6 h, 3x30 mins diesel engine exhaust gas); “highest content of oxidation products” in series [3] (UVA irradiation only (UV-Mode), UVA for 6 h); “squalene isomers (SQ isomers)” in series [3] (exhaust gas only (p-Mode), 3x30 mins diesel engine exhaust gas). For the same compound, the “decrease of squalene from sebum (GC/MS)” value in series [1] (2 h UVA exposure and one-time 30 min exhaust gas, solvent Ethanol) was determined as 93%.

On to `CC(C)CCC[C@@H](C)[C@H]1CC[C@H]2[C@@H]3CC=C4C[C@@H](O)CC[C@]4(C)[C@H]3CC[C@]12C` [cholesterol], for which, in series [1], the “change of sebum component in GC/MS chromatogram” value is given as “increase”.
